Measured values published in patent publication US10414756B2, “2-(2,4,5-substituted aniline) pyrimidine derivative, pharmaceutical composition and use thereof” (Nanjing Diansu Biological Technology Co., Ltd., priority 2014, dated 2019).
Counter-ions that a name gives are not always drawn.

What was measured:
[1] = Test 4: stability of compounds in human liver microsomes; format: in vitro ADME; details: for Remaining Percentage (%) 0 h / Remaining Percentage (%) 8 h / Remaining Percentage (%) 16 h / Remaining Percentage (%) 24 h / Remaining Percentage (%) 32 h / Remaining Percentage (%) 48 h: 0.5 mg/mL liver microsomal protein, 1 mM NADPH, 37° C., N=1; for Half-time period: human liver microsomes
Method: Test 4: Evaluation of Stability of Compounds in Human Liver Microsomes
Assay system: the metabolic stability of the compounds in the present invention were determined by employing a mixture of male and female liver microsomes (Jiangyin Qi Biotechnology Co., Ltd.) and 1 mM NADPH. Samples were analyzed by a mass spectrometer. HRMS was used to determine the peak area response ratio (corresponding to the peak area of the compound to be tested or control compound being divided by the peak area of the internal standard) without running the standard curve. In order to detect all possible metabolites, HRMS scan were performed within an appropriate m/z range.
Determination condition: the assay was performed with one time incubation (N=1). The compounds to be tested were incubated at 37° C. in a PBS buffer containing 0.5 mg/mL liver microsomal protein.
Determination quality control: compare the testosterone of control compound in parallel to determine the enzyme […] of (liver) microsomes. After the last time point, […]
Aqueous phase (A): 90% water, 10% buffer;
Organic phase (B): 90% acetonitrile, 10% buffer;
Autosampler: injection volume 10 μL

NCI-H1975 = assay: Test 5: effect in nude mice implanted with NCI-H1975; format: in vivo
Method: Test 5: Effect Assess in Nude Mice Implanted with NCI-H1975
To nude mice implanted with NCI-H1975, was administered 3.6 μgig (compound/nude mice weight) once a day in one group, and 7.2 μgig once a day in another group, and the tumor size was observed after continuous administration for 10 days.

[2] = Effect Embodiment 2: rat pharmacokinetics after intragastric administration; format: in vivo, SD rats; details: rats, 25 mg/kg intragastric, n=6, compared with AZD9291
Text: 2.1. Grouping of Experimental Animals:
24 SD rats were half male and half female, randomly divided into 4 groups, 6 rats in each group, half male and half female
1-3 male, NO. […] 7-9 male, NO. 10-12 female
2.2. Experimental Reagents and Administration Modes
Intragastric Administration:
2. grouping and weighing rats;
4. the blood samples were centrifuged, supernatant was extracted, treated, and analyzed.

[3] = Dose 3.6 μg/g once a day for 10 days
[4] = Dose 7.2 μg/g once a day for 10 days

Structure (SMILES) | Remaining Percentage (%) 0 h [1] [%] | Remaining Percentage (%) 8 h [1] [%] | Remaining Percentage (%) 16 h [1] [%] | Remaining Percentage (%) 24 h [1] [%] | Remaining Percentage (%) 32 h [1] [%] | Remaining Percentage (%) 48 h [1] [%] | Half-time period [1] [h] | tumor size 11th d (NCI-H1975; [3]) [mm] | tumor size 0 d (NCI-H1975; Dose 3.6 μg/g once a day) [mm] | tumor size 11th d (NCI-H1975; [4]) [mm] | tumor size 0 d (NCI-H1975; Dose 7.2 μg/g once a day) [mm] | inhibitory effect on tumor growth (NCI-H1975; low dose (3.6 μg/g)) | pharmacokinetics (mean drug concentration-time curve, FIG. 2) [2]
C=CC(=O)Nc1cc(Nc2nccc(-c3cn(C)c4ccccc34)n2)c(OC)cc1N(C)CCN(C)C.CS(=O)(=O)O [AZD9291, reference compound] | 100 | 82 | 61 | 48 | 34 | 14 | 24 | 13 | 13 | 8 | 12 | very low inhibitory effect on tumor growth | 
[2H]C([2H])([2H])N(C)CCN(C)c1cc(OC)c(Nc2nccc(-c3cn(C)c4ccccc34)n2)cc1NC(=O)C=C [Embodiment 1B, N-(2-{2-[methyl(D3-methyl)amino]ethyl-methylamino}-4-methoxy-5-{[4-(1-methylindol-3-yl)pyrimidin-2-yl]amino}phenyl)-2-acrylamide mesylate] | 100 | 93 | 86 | 77 | 70 | 67 | >48 | 6 | 12 | 5 | 13 |  | 
[2H]C([2H])([2H])N(CCN(C)c1cc(OC)c(Nc2nccc(-c3cn(C)c4ccccc34)n2)cc1NC(=O)C=C)C([2H])([2H])[2H] [Embodiment 2B, N-(2-{2-di(D3-methyl)aminoethyl-methylamino}-4-methoxy-5-{[4-(1-methylindol-3-yl)pyrimidin-2-yl]amino}phenyl)-2-acrylamide mesylate] | 100 | 97 | 90 | 82 | 75 | 81 | >48 | 5 | 12 | 4 | 12 |  | 
[2H]C([2H])([2H])n1cc(-c2ccnc(Nc3cc(NC(=O)C=C)c(N(C)CCN(C)C)cc3OC)n2)c2ccccc21 [Embodiment 3B, N-(2-{2-dimethylaminoethyl-methylamino}-4-methoxy-5-{[4-(1-D3-methyl)indol-3-yl)pyrimidin-2-yl]amino}phenyl)-2-acrylamide mesylate] | 100 | 90 | 82 | 73 | 64 | 55 | >48 | 9 | 14 | 7 | 13 |  | better pharmacokinetics
[2H]C([2H])([2H])Oc1cc(N(C)CCN(C)C)c(NC(=O)C=C)cc1Nc1nccc(-c2cn(C)c3ccccc23)n1 [Embodiment 4B, N-(2-{2-dimethylaminoethyl-methylamino}-4-(D3-methoxy)-5-{[4-(1-methylindol-3-yl)pyrimidin-2-yl]amino}phenyl)-2-acrylamide mesylate] | 100 | 89 | 81 | 72 | 63 | 51 | >48 | 8 | 13 | 6 | 11 |  | 
[2H]C([2H])([2H])N(CCN(C)C)c1cc(OC)c(Nc2nccc(-c3cn(C)c4ccccc34)n2)cc1NC(=O)C=C [Embodiment 5B, N-(2-{2-dimethylaminoethyl-(D3-methyl)amino}-4-methoxy-5-{[4-(1-methylindol-3-yl)pyrimidin-2-yl]amino}phenyl)-2-acrylamide mesylate] | 100 | 91 | 84 | 75 | 69 | 66 | >48 | 10 | 11 | 8 | 14 |  | 
[2H]C([2H])([2H])N(CCN(C)c1cc(OC)c(Nc2nccc(-c3cn(C([2H])([2H])[2H])c4ccccc34)n2)cc1NC(=O)C=C)C([2H])([2H])[2H] [Embodiment 6B, N-(2-{2-di(D3-methyl)aminoethyl-methylamino}-4-methoxy-5-{[4-(1-(D3-methyl)indol-3-yl)pyrimidin-2-yl]amino}phenyl)-2-acrylamide mesylate] | 100 | 92 | 80 | 76 | 65 | 58 | >48 |  |  |  |  |  | 
